{"source": "paper PMC3269340", "about": "“Pharmacokinetics of memantine in rats and mice” (PLoS Currents, 2012)", "key": {"OCT2": {"target": "T1, OCT2 (Homo sapiens, UniProt O15244)", "T1 construct": "expressed in transfected cells; host or cells: CHO cells", "T1 sequence (O15244 1-555)": "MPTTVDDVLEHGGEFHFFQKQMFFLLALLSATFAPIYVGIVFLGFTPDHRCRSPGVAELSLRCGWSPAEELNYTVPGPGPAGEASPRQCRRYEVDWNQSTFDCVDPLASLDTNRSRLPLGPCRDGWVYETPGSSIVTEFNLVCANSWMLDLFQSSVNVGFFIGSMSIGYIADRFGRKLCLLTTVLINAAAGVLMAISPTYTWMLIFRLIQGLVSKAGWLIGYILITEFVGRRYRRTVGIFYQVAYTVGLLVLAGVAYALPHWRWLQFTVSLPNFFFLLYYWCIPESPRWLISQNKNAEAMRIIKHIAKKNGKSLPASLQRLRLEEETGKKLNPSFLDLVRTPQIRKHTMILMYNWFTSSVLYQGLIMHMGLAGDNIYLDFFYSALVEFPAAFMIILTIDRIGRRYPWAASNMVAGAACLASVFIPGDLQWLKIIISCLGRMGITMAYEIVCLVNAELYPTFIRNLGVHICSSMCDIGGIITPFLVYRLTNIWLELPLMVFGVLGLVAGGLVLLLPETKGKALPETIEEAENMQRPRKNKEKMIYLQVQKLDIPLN", "experiment": "Indirect uptake transporter assay, OCT2", "format": "in vitro ADME", "excerpt": "To determine whether memantine is an inhibitor of the human OATP2B1 (OATP-B), OCT1, OCT2, OAT3, PEPT1, PEPT2 uptake transporters. The standard uptake transporter assay is an indirect, inhibitory-type screening assay, performed with cold test article, which in this case was memantine. It provides information on any interaction (substrate or inhibitor) between selected uptake transporters and memantine that would affect the transport of the reporter compound. […] A radiolabeled reporter substrate is transported into the cells transfected with the selected human uptake transporter, and the inhibitory effect of memantine on the transport of this reporter substrate is measured. Values are presented on a relative scale; 100% defined as transport in the presence of the solvent and without memantine (no inhibition), and 0% defined as transport detected without transporter activity. IC50 is defined as the concentration required to inhibit the transport of the reporter substrate by 50%. […]\nAfter the experiment cells were rinsed with 2 x 100µl of Krebs-Henseleit buffer and lysed with 50 µl of 0.1M NaOH. ^3H-estrone-3-sulfate, ^14C-TEA, ^14C-metformin and ^3H-Gly-Sar transport was determined by total radioactivity by transferring an aliquot (35µl) from each well to a vial containing liquid scintillant for analysis."}, "OATP2B1": {"target": "T2, OATP2B1 (Homo sapiens, UniProt O94956)", "T2 construct": "expressed in transfected cells; host or cells: MDCKII cells", "T2 sequence (O94956 1-709)": "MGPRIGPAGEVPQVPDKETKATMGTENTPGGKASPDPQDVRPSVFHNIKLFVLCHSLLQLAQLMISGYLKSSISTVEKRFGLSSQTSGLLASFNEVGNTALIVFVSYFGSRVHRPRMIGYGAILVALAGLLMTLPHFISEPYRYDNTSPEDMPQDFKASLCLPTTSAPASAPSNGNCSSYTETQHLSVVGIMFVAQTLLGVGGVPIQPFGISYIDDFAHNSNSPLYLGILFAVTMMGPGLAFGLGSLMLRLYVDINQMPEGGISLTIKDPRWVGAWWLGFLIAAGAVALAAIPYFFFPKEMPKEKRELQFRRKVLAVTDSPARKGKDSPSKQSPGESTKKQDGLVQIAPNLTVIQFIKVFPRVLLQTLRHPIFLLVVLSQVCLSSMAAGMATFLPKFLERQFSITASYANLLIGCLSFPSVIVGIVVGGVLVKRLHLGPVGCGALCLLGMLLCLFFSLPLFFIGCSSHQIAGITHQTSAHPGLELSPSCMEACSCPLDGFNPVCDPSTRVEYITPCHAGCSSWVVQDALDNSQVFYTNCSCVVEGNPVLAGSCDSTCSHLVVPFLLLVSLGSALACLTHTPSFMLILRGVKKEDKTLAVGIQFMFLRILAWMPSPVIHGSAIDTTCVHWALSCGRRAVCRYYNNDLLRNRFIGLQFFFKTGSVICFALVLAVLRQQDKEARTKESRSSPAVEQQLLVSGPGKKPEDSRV", "experiment": "Direct uptake transporter assay, OATP2B1", "format": "in vitro ADME", "conditions": "for Accumulation in transporter transfected cells: OATP2B1-transfected cells; for Accumulation in parental cells: parental MDCKII cells (OATP2B1 line)", "experimental": "To determine whether memantine is a substrate of the human OATP2B1 (OATP-B), OCT1, OCT2, OAT3, PEPT1, PEPT2 uptake transporters.\nThe potential for memantine to be a substrate of an uptake transporter was determined directly by comparing the uptake of memantine into cells expressing the selected uptake transporter with its uptake into control cells. Memantine was added to transporter-expressing and control cells at two concentrations (PEPT1 and PEPT2 100 and 300 µM, OCT1 and OCT2 50 and 100 µM, OATP2B1 100 and 300 µM), and incubated with cells for 2 and 20 min at 37±1°C (75 µL final incubation volume). […] Incubations were carried out as described in the indirect uptake transporter assays. The concentration of memantine was determined by LC-MS/MS."}}}
{"compound": "CC12CC3CC(C)(C1)CC(N)(C3)C2", "note": "[memantine]", "values": [{"measurement": "IC50", "setting": "OCT2; OCT2-mediated metformin uptake", "value": 8.9, "unit": "µM"}, {"measurement": "IC50", "setting": "OCT2; OCT2, probe in Table 5: Gly-Sar (1.8 μM), methods and text: metformin", "value": 8.86, "unit": "µM"}, {"measurement": "substrate of OATP2B1 uptake transporter", "setting": "OATP2B1", "value": "appeared to be a substrate"}, {"measurement": "accumulation in transporter-transfected cells higher than in parental cells", "setting": "OATP2B1; OATP2B1", "value": "> 1.5", "unit": "fold"}, {"measurement": "Highest Fold Activation", "setting": "OATP2B1; OATP2B1, 300 µM, 20 min", "value": "2.1 (300 µM, 20 min)"}, {"measurement": "Accumulation in transporter transfected cells", "setting": "OATP2B1; 2 min, 100 µM", "value": 11317, "unit": "pmol/mg"}, {"measurement": "Accumulation in transporter transfected cells", "setting": "OATP2B1; 2 min, 300 µM", "value": 18296, "unit": "pmol/mg"}, {"measurement": "Accumulation in transporter transfected cells", "setting": "OATP2B1; 20 min, 100 µM", "value": 20820, "unit": "pmol/mg"}, {"measurement": "Accumulation in transporter transfected cells", "setting": "OATP2B1; 20 min, 300 µM", "value": 45866, "unit": "pmol/mg"}, {"measurement": "Accumulation in parental cells", "setting": "OATP2B1; 2 min, 100 µM", "value": 6409, "unit": "pmol/mg"}, {"measurement": "Accumulation in parental cells", "setting": "OATP2B1; 2 min, 300 µM", "value": 10891, "unit": "pmol/mg"}, {"measurement": "Accumulation in parental cells", "setting": "OATP2B1; 20 min, 100 µM", "value": 10889, "unit": "pmol/mg"}, {"measurement": "Accumulation in parental cells", "setting": "OATP2B1; 20 min, 300 µM", "value": 21496, "unit": "pmol/mg"}]}
